Assay results as given in the supplement of paper PMC13207355.

Assays:
Settings in all cases: exposure time: 72 h
[1] = system: E13 (patient-derived glioblastoma stem cells of classical subtype); assay: surviving fraction (nuclei count normalised to DMSO); higher = more cells surviving (less toxic)
[2] = system: E31 (patient-derived glioblastoma stem cells of proneural subtype); assay: as above
[3] = system: E57 (patient-derived glioblastoma stem cells of mesenchymal subtype); assay: as above
[4] = system: FT3469 (normal neural stem cell line); assay: as above
[5] = system: E28 (patient-derived glioblastoma stem cells of classical subtype); assay: as above
[6] = system: E21 (patient-derived glioblastoma stem cells of mesenchymal subtype); assay: as above
[7] = system: E34 (patient-derived glioblastoma stem cells of proneural subtype); assay: as above
[8] = system: E13; assay: phenotypic distance (Euclidean, principal components) from DMSO controls (arbitrary units); higher = stronger morphological change
[9] = system: E31; assay: as above
[10] = system: E57; assay: as above
[11] = system: FT3469; assay: as above
[12] = system: E28; assay: as above
[13] = system: E21; assay: as above
[14] = system: E34; assay: as above
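Wherever phenotypic distance (Euclidean, principal components) from DMSO controls is given: cell Painting imaging in 384-well plates, CellProfiler features reduced to at least 20 principal components, Euclidean distance versus same-plate DMSO vehicle wells (0.1% v/v), median over six images per well.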
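Wherever surviving fraction (nuclei count normalised to DMSO) is given: nuclei counted by high-content imaging of Hoechst-stained cells in laminin-coated 384-well plates, relative to 0.1% DMSO vehicle wells, with staurosporine as cell-death control.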

CC[n+]1c(/C=C/C=C2/N(C)c3ccccc3C2(C)C)sc2ccccc21
Settings | phenotypic distance | surviving fraction
[1], 4.1 nM | – | 0.616
[1], 12.3 nM | – | 0.567
[1], 37 nM | – | 0.47
[1], 111.1 nM | – | 0.362
[1], 333.3 nM | – | 0.403
[1], 1000 nM | – | 0.361
[1], 3000 nM | – | 0.381
[2], 4.1 nM | – | 1.03
[2], 12.3 nM | – | 0.703
[2], 37 nM | – | 0.714
[2], 111.1 nM | – | 0.446
[2], 333.3 nM | – | 0.21
[2], 1000 nM | – | 0.229
[2], 3000 nM | – | 0.277
[3], 4.1 nM | – | 0.878
[3], 12.3 nM | – | 0.881
[3], 37 nM | – | 0.793
[3], 111.1 nM | – | 0.614
[3], 333.3 nM | – | 0.337
[3], 1000 nM | – | 0.324
[3], 3000 nM | – | 0.294
[4], 4.1 nM | – | 0.855
[4], 12.3 nM | – | 0.668
[4], 37 nM | – | 0.696
[4], 111.1 nM | – | 0.627
[4], 333.3 nM | – | 0.645
[4], 1000 nM | – | 0.622
[4], 3000 nM | – | 0.578
[5], 4.1 nM | – | 0.916
[5], 12.3 nM | – | 0.86
[5], 37 nM | – | 0.707
[5], 111.1 nM | – | 0.596
[5], 333.3 nM | – | 0.429
[5], 1000 nM | – | 0.42
[5], 3000 nM | – | 0.307
[6], 4.1 nM | – | 0.792
[6], 12.3 nM | – | 0.825
[6], 37 nM | – | 0.652
[6], 111.1 nM | – | 0.54
[6], 333.3 nM | – | 0.471
[6], 1000 nM | – | 0.462
[6], 3000 nM | – | 0.445
[7], 4.1 nM | – | 0.967
[7], 12.3 nM | – | 0.902
[7], 37 nM | – | 0.834
[7], 111.1 nM | – | 0.572
[7], 333.3 nM | – | 0.552
[7], 1000 nM | – | 0.591
[7], 3000 nM | – | 0.516
[8], 4.1 nM | 1.39 | –
[8], 12.3 nM | 1.38 | –
[8], 37 nM | 2.78 | –
[8], 111.1 nM | 3.54 | –
[8], 333.3 nM | 3.71 | –
[8], 1000 nM | 3.71 | –
[8], 3000 nM | 3.71 | –
[9], 4.1 nM | 2.01 | –
[9], 12.3 nM | 1.15 | –
[9], 37 nM | 1.51 | –
[9], 111.1 nM | 1.16 | –
[9], 333.3 nM | 3.28 | –
[9], 1000 nM | 4.43 | –
[9], 3000 nM | 3.86 | –
[10], 4.1 nM | 1.08 | –
[10], 12.3 nM | 0.887 | –
[10], 37 nM | 1.53 | –
[10], 111.1 nM | 2.52 | –
[10], 333.3 nM | 6.37 | –
[10], 1000 nM | 5.7 | –
[10], 3000 nM | 7.93 | –
[11], 4.1 nM | 1.31 | –
[11], 12.3 nM | 1.56 | –
[11], 37 nM | 1.69 | –
[11], 111.1 nM | 1.86 | –
[11], 333.3 nM | 1.62 | –
[11], 1000 nM | 3.78 | –
[11], 3000 nM | 3.43 | –
[12], 4.1 nM | 0.748 | –
[12], 12.3 nM | 0.775 | –
[12], 37 nM | 1.34 | –
[12], 111.1 nM | 1.61 | –
[12], 333.3 nM | 3.13 | –
[12], 1000 nM | 2.8 | –
[12], 3000 nM | 5.04 | –
[13], 4.1 nM | 1.08 | –
[13], 12.3 nM | 1.6 | –
[13], 37 nM | 2.31 | –
[13], 111.1 nM | 3.28 | –
[13], 333.3 nM | 3.93 | –
[13], 1000 nM | 3.44 | –
[13], 3000 nM | 2.74 | –
[14], 4.1 nM | 1.1 | –
[14], 12.3 nM | 1.65 | –
[14], 37 nM | 1.13 | –
[14], 111.1 nM | 2.37 | –
[14], 333.3 nM | 2.3 | –
[14], 1000 nM | 2.55 | –
[14], 3000 nM | 3.35 | –
